{
  "source": "patent US7435850B2",
  "about": "“Naphthalene compounds” (Les Laboratoires Servier, priority 2006, dated 2008)",
  "key": {"MT2 receptor": {"target": "T1, MT2 receptor (Homo sapiens, UniProt P49286)", "T1 sequence (P49286 1-362)": "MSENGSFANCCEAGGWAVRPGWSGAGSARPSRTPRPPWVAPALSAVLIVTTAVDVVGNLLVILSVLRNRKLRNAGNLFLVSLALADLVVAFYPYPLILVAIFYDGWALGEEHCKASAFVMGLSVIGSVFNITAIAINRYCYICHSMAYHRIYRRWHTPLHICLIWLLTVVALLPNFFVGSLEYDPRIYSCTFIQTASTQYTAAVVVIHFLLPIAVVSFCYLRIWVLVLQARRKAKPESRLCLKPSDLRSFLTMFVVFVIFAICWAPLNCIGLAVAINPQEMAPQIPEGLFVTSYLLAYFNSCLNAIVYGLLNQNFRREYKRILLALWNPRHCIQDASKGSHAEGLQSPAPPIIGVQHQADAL", "experiment": "Melatonin MT2 receptor binding study", "description": "(§1) The MT1 or MT2 receptor binding experiments are carried out using 2-[^125 I]-iodomelatonin as reference radioligand. The radioactivity retained is determined using a liquid scintillation counter.\n(§2) Competitive binding experiments are then carried out in triplicate using the various test compounds. A range of different concentrations is tested for each compound. The results enable the binding affinities of the compounds tested (Ki) to be determined."}, "MT1 receptor": {"target": "MT1 receptor (Homo sapiens, UniProt P48039)", "sequence (P48039 whole entry)": "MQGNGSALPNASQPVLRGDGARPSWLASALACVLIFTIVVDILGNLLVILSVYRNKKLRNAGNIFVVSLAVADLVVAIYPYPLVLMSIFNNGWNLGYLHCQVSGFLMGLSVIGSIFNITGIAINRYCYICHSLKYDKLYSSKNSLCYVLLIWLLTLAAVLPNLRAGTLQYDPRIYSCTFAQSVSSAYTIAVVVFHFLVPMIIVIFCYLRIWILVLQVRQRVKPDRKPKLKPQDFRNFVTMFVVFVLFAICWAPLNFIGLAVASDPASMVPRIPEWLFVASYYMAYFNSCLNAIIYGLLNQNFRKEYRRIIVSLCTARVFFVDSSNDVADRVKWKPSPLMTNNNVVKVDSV", "experiment": "Melatonin MT1 receptor binding study", "description": "as §1, §2"}},
  "data": [
    {"smiles": "COc1ccc2cccc(C(CO)CNC(=O)CF)c2c1", "note": "(centres unmarked) [Example 1, 2-Fluoro-N-[3-hydroxy-2-(7-methoxy-1-naphthyl)propyl]acetamide]", "values": [
      {"measurement": "Ki", "setting": "MT2 receptor", "value": 0.5, "unit": "nM"},
      {"measurement": "Ki", "setting": "MT1 receptor", "value": 4.7, "unit": "nM"}
    ]}
  ]
}
